Reference: patent publication EP1038864A1, “NOVEL METALLOPROTEINASE INHIBITORS” (FUJI YAKUHIN KOGYO KABUSHIKI KAISHA, priority 1997, dated 1999)
Like-named read-outs stand apart in the source and are kept apart here.

Legend:
[1] = target: human fibroblast stromelysin (Homo sapiens, UniProt P08254); assay: Assay for inhibition of stromelysin (fluorescein-labeled casein substrate); assay type: biochemical
Experimental: (§1) Described below are assays for biological activities of the compounds according to the present invention, formulations, dosage forms and dosage levels thereof, and miscellaneous matters. The efficacy of the compounds represented by the formula (I) according to the present invention as inhibitors of human fibroblast collagenase (metalloproteinase involved in the breakdown of tissues) is determined by a procedure based on the method of Y. Murawaki et al., Journal of Hepatology, 18, p328-334 (1993). The efficacy of the compounds (I) of this invention as inhibitors of human fibroblast stromelysin is determined by a procedure based on the method of S. S. Twining, Anal. Biochem., 143, p30 (1984). The assay results obtained are shown hereinbelow, together with biological examples which illustrate embodiments of the assay protocols.
The efficacy of compounds of the present invention to act as inhibitors of human fibroblast stromelysin was determined by the procedure of Twining (Anal. Biochem., 143, p.30, 1984), compared with a reference compound.
Prostromelysin was activated by incubation with 20 µg/ml human plasmin at 37°C for 2 hours, and the reaction was stopped by addition of 2.8 mg/ml aqueous diisopropyl fluorophosphate. The inhibition was assayed using, as a substrate, fluorescein-labeled casein. To a solution of the substrate (1 mg/ml) in a 50 mM Tris-HCl buffer, pH 7.8, containing 10mM aqueous calcium chloride was added the activated stromelysin. The resultant solution was incubated at 37°C for 2 hours. The digestion of the substrate with the enzyme was stopped by addition of 5% trichloroacetic acid. Undigested substrates were precipitated by centrifugation at 3000 x g for 20 minutes. The supernatant was collected, followd by additon of a 0.5M Tris-HCl buffer, pH 8.5. The fluorescence was read using an excitation wavelength of 495 nm and an emission wavelength of 520 nm. The inhibitory potency of the compounds was calculated. […] The resulting assay data for representative examples are shown in Table 2, compared with the reference compound.

in vivo = conditions: rat, po, 100 mg/kg
Experimental: Each compound of the present invention was dissolved in distilled water for injection and orally administered to rats (Lewis strain line, male, body weight: about 200 g) at a dose of 100mg/kg. From 30 minutes to 4 hours after the administration, a series of blood chronologically collected from rat fundus oculi were centrifuged (3000rpm for 10 minutes at 4°C) to give plasma samples. Each plasma sample (200 µl) was filtered through an ultrafiltration membrane by centrifugation at 1500 x G for 3 minutes using a micropartition UF unit (Centrifree-MPS-3: 30,000 MW cut-off, Amicon Corp., Beverly, MA). […] The reaction was stopped by adding 900 µl of 3% aqueous acetic acid to the reaction mixture. The fluorescence of the resulting solution was read using an excitation wavelength of 325 nm and an emission wavelength of 393 nm. The concentration of each test compound in rat plasma samples was calculated using a standard curve which was prepared based on a variety of doses.

TNF-α Convertase = TNF-α Convertase (Homo sapiens, UniProt P78536); assay: Assay for inhibition of TNF-α production in LPS-stimulated, PMA-differentiated U937 cells
Chain of TNF-α Convertase (P78536 215-824): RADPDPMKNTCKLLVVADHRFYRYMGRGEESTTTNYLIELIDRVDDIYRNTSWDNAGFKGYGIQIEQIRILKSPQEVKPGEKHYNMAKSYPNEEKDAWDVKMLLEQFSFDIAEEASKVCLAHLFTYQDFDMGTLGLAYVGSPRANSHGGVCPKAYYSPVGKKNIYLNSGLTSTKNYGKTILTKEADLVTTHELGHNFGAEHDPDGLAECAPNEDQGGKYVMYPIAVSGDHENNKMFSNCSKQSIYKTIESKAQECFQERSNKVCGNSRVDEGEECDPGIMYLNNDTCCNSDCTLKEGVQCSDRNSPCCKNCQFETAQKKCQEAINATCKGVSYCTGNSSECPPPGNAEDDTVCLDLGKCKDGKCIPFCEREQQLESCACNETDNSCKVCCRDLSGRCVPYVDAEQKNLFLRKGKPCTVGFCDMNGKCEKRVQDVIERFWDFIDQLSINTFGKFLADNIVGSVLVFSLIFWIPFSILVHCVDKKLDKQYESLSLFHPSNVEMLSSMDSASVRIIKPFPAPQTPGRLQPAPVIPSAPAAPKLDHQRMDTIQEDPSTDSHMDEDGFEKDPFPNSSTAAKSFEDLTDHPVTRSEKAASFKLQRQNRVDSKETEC
Experimental: Human monocytic leukemia cell line U937 (human histiocytic lymphoma cell line U937) cells were cultured in RPMI 1640 (Nissui Pharmaceutical Co., Ltd., Japan) supplemented with 5% fetal calf serum (FCS; IBL, Japan) in an incubator at 37°C under 5% CO2, then transferred to multiplates at a density of 1 x 10^6 cells/1 ml/well, and incubated overnight in the presence of 10^-7 M phorbol 12-myristate 13-acetate (Wako Pure Chemical Industries, Ltd., Japan) to form differentiated macrophage-like cells. To the resultant cells was added E. coli O127:B8 lipopolysaccaride (LPS, 0.1 µg/ml; Sigma) alone or along with each compound of the present invention, and the treated cells were then incubated for 6 hours in an incubator under 5% CO2 at 37°C. After the incubation, the cultures were collected and centrifuged at 3000 rpm for 10 minutes to give supernatants which were diluted with purified water and then assayed using a TNF-α assay kit, Genzyme (Table 3).

[2] = target: T1, human fibroblast collagenase (Homo sapiens, UniProt P03956); assay: Assay for inhibition of collagenase (fluorescein-labeled bovine type I collagen substrate); assay type: biochemical
T1 sequence (P03956 100-469): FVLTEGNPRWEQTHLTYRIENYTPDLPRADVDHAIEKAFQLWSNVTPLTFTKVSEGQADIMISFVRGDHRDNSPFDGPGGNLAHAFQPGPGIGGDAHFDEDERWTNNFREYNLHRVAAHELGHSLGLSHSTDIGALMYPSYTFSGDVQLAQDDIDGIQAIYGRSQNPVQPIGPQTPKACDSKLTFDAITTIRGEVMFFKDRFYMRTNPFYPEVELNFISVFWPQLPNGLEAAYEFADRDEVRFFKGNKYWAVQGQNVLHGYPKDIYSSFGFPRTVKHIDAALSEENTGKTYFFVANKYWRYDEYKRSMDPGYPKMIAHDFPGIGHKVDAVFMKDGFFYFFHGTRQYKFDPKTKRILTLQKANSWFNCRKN
Experimental: as §1
The efficacy of compounds of the present invention to act as inhibitors of human fibroblast collagenase was determined by the procedure of Y. Murawaki et al. (Journal of Hepatology, 18, p.328-334, 1993), compared with a reference compound.
Procollagenase was activated by incubation with 2 mM 4-aminophenylmercuric acetate (APMA) at 35°C for 2 hours. The inhibition was assayed using, as a substrate, fluorescein-labeled bovine type I collagen. To a solution of the substrate (0.5 mg/ml) in a 50 mM Tris-HCl buffer, pH 7.5, containing 0.4M aqueous sodium chloride and 10 mM aqueous […] was added the activated collagenase. The resultant solution was incubated at 35°C for 2 hours. The digestion of the substrate with the enzyme was stopped by addition of 80 mM o-phenanthroline, followed by addition of a porcine elastase solution formed by dissolving 25 µg/ml porcine elastase in the aforementioned Tris-HCl buffer. The mixture was incubated at 37°C for 10 minutes. To the resulting solution was added 70% ethanol, and a 170 mM Tris-HCl buffer, pH 9.5, containing 0.67M aqueous sodium chloride. Undigested substrates were precipitated by centrifugation at 3000 x g for 20 minutes. The supernatant was collected and the fluorescence was read using an excitation wavelength of 495 nm and an emission wavelength of 520 nm. The inhibitory potency of the compounds was calculated. […] The resulting assay data for representative examples are shown in Table 1, compared with the reference compound. […]

[3] = read-out: Inhibition of MMP-3, plasmin-activated human fibroblast prostromelysin, 37°C, 2 hours, pH 7.8
[4] = plasmin-activated human fibroblast prostromelysin, 37°C, 2 hours, pH 7.8, read-out: Inhibition of MMP-3
[5] = activated human fibroblast procollagenase, 35°C, 2 hours, pH 7.5, read-out: Inhibition of MMP-1

Chain of human fibroblast stromelysin (P08254 100-477): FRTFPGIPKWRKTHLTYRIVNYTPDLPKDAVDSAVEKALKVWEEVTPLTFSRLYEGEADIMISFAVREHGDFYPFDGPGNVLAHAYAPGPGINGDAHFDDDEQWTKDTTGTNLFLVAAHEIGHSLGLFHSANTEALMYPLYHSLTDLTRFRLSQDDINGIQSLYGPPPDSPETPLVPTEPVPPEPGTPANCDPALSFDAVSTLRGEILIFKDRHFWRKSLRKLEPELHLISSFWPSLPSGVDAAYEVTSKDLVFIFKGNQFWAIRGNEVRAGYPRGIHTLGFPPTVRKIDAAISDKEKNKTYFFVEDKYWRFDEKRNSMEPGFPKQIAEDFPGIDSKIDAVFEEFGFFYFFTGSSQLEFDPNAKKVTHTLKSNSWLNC

| Compound | IC50 (TNF-α Convertase) [nM] | IC50 [2, 5] [nM] | further results |
| --- | --- | --- | --- |
| CNC(=O)[C@H](CCCCN)NC(=O)[C@H](CC(C)C)C(CCCc1ccc(CN)cc1)C(=O)NO (single isomer, unassigned) [Compound No. 61, N^a-[4-(Hydroxyamino)-2(R)-isobutyl-3(R or S)-(3-(p-aminomethylphenyl)propyl]succinyl]-L-lysine N-methylamide· 2 acetate] | – | – | IC50 [1, 3]: 23 nM; AUC at 4 h (in vivo): 13800 ng·h/mL; IC50 (TNF-α Convertase; read-out: Inhibition of TACE, U937 cells, LPS 0.1 µg/ml, 6 hours, TNF-α in supernatant by assay kit): 1100 nM |
| CNC(=O)C(Cc1ccc(CN)cc1)NC(=O)C(CC(C)C)C(C)C(=O)NO [Compound No. 23, N^a-[4-(Hydroxyamino)-2(R)-isobutyl-3(RS)-methylsuccinyl]-4'-aminomethyl-L-phenylalanine N-methylamide · 1 acetate] | 1190 | – | IC50 [1]: 16 nM; AUC at 4 h (in vivo): 4760 ng·h/mL |
| CNC(=O)C(CCCNC(=N)N)NC(=O)C(CC(C)C)C(Cc1ccc(CNS(=O)(=O)c2ccc(C)cc2)cc1)C(=O)NO (single isomer, unassigned) [Compound No. 50, N^a-[4-(Hydroxyamino)-2(R)-isobutyl-3(R or S)-[p-(p-toluenesulfonamidomethyl)benzyl]succinyl]-L-arginine N-methylamide · 1 acetate] | 599 | 13 | IC50 [1, 4]: 9 nM |
| CNC(=O)[C@H](CCCNC(=N)N)NC(=O)[C@H](CC(C)C)C(CC(C)C)C(=O)NO (single isomer, unassigned) [Compound No. 24, N^a-[4-(Hydroxyamino)-2(R),3(R or S)-diisobutylsuccinyl]-L-arginine N-methylamide · 1 acetate] | 480 | – | IC50 [1]: 18 nM; IC50 [2]: 5 nM |
| CNC(=O)C(CCCCNC(C)=N)NC(=O)C(CC(C)C)C(CCCc1ccccc1)C(=O)NO [Compound No. 30, N^a-[4-(Hydroxyamino)-2(R)-isobutyl-3(RS)-(3-phenylpropyl)-succinyl]-N^e-acetimidoyl-L-lysine N-methylamide · 1 acetate] | – | 10 | IC50 [1]: 12 nM |
| CNC(=O)[C@H](CCCCN)NC(=O)[C@H](CC(C)C)C(CCCc1cccc(C(=O)OC)c1)C(=O)NO (single isomer, unassigned) [Compound No. 71, N^a-[4-(Hydroxyamino)-2(R)-isobutyl-3(R or S)-[3-(m-methoxycarbonylphenyl)propyl]succinyl]-L-lysine N-methylamide· 1 acetate] | 352 | 4 | – |
| CC(=N)NCCCCC(NC(=O)C(CC(C)C)C(CCCc1ccccc1)C(=O)NO)C(=O)NCCO (single isomer, unassigned) [Compound No. 36, N^a-[4-(Hydroxyamino)-2(R)-isobutyl-3(R or S)-(3-phenylpropyl)-succinyl]-N^e-acetimidoyl-L-lysine N-(2-hydroxyethyl)amide · 1 acetate] | – | 14 | IC50 [1, 4]: 9 nM |
| CNC(=O)C(CCCNC(=N)N)NC(=O)C(CC(C)C)C(Cc1ccc(CN2C(=O)c3ccccc3C2=O)cc1)C(=O)NO (single isomer, unassigned) [Compound No. 51, N^a-[4-(Hydroxyamino)-2(R)-isobutyl-3(R or S)-(p-phthalimidomethylbenzyl)succinyl]-L-arginine N-methylamide · 1 acetate] | 426 | 9 | IC50 [1, 4]: 2 nM |
| CNC(=O)C(CCNC(=N)N)NC(=O)C(CC(C)C)C(CC(C)C)C(=O)NO [Compound No. 27, N^4-[3-Guanidino-1(S)-methylcarbamoylpropyl]-N^1-hydroxy-3(R),2(RS)-diisobutylsuccinamide · 1 acetate] | – | 7 | IC50 [1, 4]: 60 nM |
| CNC(=O)C(CCCNC(=N)N)NC(=O)C(CC(C)C)C(C)C(=O)NO [Compound No. 25, N^a-[4-(Hydroxyamino)-2(R)-isobutyl-3(RS)-methylsuccinyl]-L-arginine N-methylamide · 1 acetate] | – | 10 | – |
| CCCCOCCC(C(=O)NO)[C@@H](CC(C)C)C(=O)N[C@@H](CCCCN)C(=O)NC (single isomer, unassigned) [Compound No. 69, N^a-[4-(Hydroxyamino)-2(R)-isobutyl-3(R or S)-(2-n-butyloxyethyl)succinyl]-L-lysine N-methylamide· 1 acetate] | – | – | IC50 [1, 3]: 20 nM; AUC at 4 h (in vivo): 3340 ng·h/mL |
| CNC(=O)[C@@H](NC(=O)[C@H](CC(C)C)[C@H](O)C(=O)NO)C(C)(C)C [Reference Compound No. 2, reference compound] | – | – | AUC at 4 h (in vivo): 1570 ng·h/mL |

Second part, led by results:

| IC50 (TNF-α Convertase) [nM] | IC50 [2, 5] [nM] | Compound | further results |
| --- | --- | --- | --- |
| 737 | 13 | CNC(=O)C(CCCN)NC(=O)C(CC(C)C)C(CCCc1ccc(CNC(=N)N)cc1)C(=O)NO (single isomer, unassigned) [Compound No. 81, N^a-[4-(Hydroxyamino)-2(R)-isobutyl-3(R or S)-[3-(p-guanidomethylphenyl)propyl]succinyl]-L-ornithine N-methylamide · 2 acetate] | – |
| – | 18 | CNC(=O)[C@H](CCN)NC(=O)[C@H](CC(C)C)C(CCCc1ccc(CN)cc1)C(=O)NO (single isomer, unassigned) [Compound No. 78, N^4-[3-Amino-1(S)-methylcarbamoylpropyl)-N^1-hydroxy-2(R or S)-[3-(p-aminomethylphenyl)propyl]-3(R)-isobutylsuccinamide· 2 acetate] | – |
| 250 | – | CNC(=O)[C@H](CCCCN)NC(=O)[C@H](CC(C)C)C(CCCc1ccc(O)cc1)C(=O)NO (single isomer, unassigned) [Compound No. 72, N^a-[4-(Hydroxyamino)-2(R)-isobutyl-3(R or S)-[3-(p-hydroxyphenyl)propyl]succinyl]-L-lysine N-methylamide· 1 acetate] | AUC at 4 h (in vivo): 4040 ng·h/mL |
| – | 11 | CNC(=O)[C@H](CCCCN)NC(=O)[C@H](CC(C)C)C(CCCN1CCOCC1)C(=O)NO (single isomer, unassigned) [Compound No. 73, N^a-[4-(Hydroxyamino)-2(R)-isobutyl-3(R or S)-[3-(morpholin-4-yl)propyl]succinyl]-L-lysine N-methylamide· 1 acetate] | – |
| – | 9 | CNC(=O)[C@H](CCCN)NC(=O)[C@H](CC(C)C)C(CCCc1ccc(CN)cc1)C(=O)NO (single isomer, unassigned) [Compound No. 80, N^a-[4-(Hydroxyamino)-2(R)-isobutyl-3(R or S)-[3-(p-aminomethylphenyl)propyl]succinyl]-L-ornithine N-methylamide· 1 acetate] | – |
| – | 17 | CC(=N)NCc1ccc(CC(NC(=O)C(CC(C)C)C(CC(C)C)C(=O)NO)C(=O)NCCO)cc1 [Compound No. 91, N^a-[4-(Hydroxyamino)-2(R),3(RS)-diisobutylsuccinyl]-4'-acetimidoyliminomethyl-L-phenylalanine N-(2-hydroxyethyl)amide· 2 acetate] | – |
